Earlier results on two compounds are cited in patent publication US8697862B2, “Synthesis of galactoside inhibitors” (Galecto Biotech AB, priority 2008, dated 2014).

The series concerns galectins.

`O=C[C@H](O)[C@@H](O)[C@@H](O)[C@H](O)CO` [D-galactose]: the “affinity, times lower than lactose” value (relative to lactose) is recorded as 50-100 times.
With `OC[C@H]1O[C@@H](O[C@H]2[C@H](O)[C@@H](O)C(O)O[C@@H]2CO)[C@H](O)[C@@H](O)[C@H]1O` (some centres unmarked) [lactose], the Kd (all galectins) is 500 to 1000 µM.

As a reminder, the Kd is the constant that tells how readily two partners part at equilibrium.
